Where two headings read alike, the source gives them in different places.
Tests used:
[1] = tested on: MT-4 cell line (HTLV-1 transformed, human T lymphoblastoid cells); experiment: MT-4 cytotoxicity assay; format: cell-based; settings: five days, Cell Titer Glo luminescence
[2] = tested on: HBV-infected NTCP-HepG2 cells, secreted HBsAg; experiment: microbe, parasite or virus in culture; format: cell-based, hepatitis B virus (genotype D, AD38-derived); settings: secreted HBsAg in supernatant after 5 days, geometric mean of minimum four determinations, read-out: NTCP HBsAg EC50
Summary of the method: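 NTCP-HepG2 cells were infected with genotype D HBV at 4000 genome equivalents/cell, then seeded 4 days post-infection with serially diluted compounds (1% DMSO) for 5 days. Supernatant HBsAg was measured by chemiluminescent MSD immunoassay. EC50 from four-parameter fit, geometric mean of ≥4 determinations.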

[3] = In vitro metabolic stability, hepatocyte stability (cynomolgus monkey); format: in vitro ADME; settings: Cyno hepatocytes, read-out: hepatocyte stability T1/2 (converted)
Description: (§1) Biological Example 3: In Vitro Metabolic Stability
(§2) For hepatocyte stability incubations, cells were obtained from BioreclamationIVT (Baltimore, Md.), thawed according to the manufacturer's directions, and resuspended to a final concentration of 1×10^6 cells/mL in Krebs-Henseleit buffer prewarmed to 37° C. The total cell count and the proportion of viable cells were determined by Trypan Blue dye exclusion using a hemocytometer. The final concentration of test compounds and positive controls was 2 μM. Incubations were carried out in duplicate wells of a 24-well plate out with gentle shaking at 37° C. under a humid atmosphere of 95% air/5% CO2 (v/v). Aliquots (50 μL) were removed after 0, 1, 3, and 6 hours and added to 100 μL quenching solution. Samples were then processed and analyzed in a manner similar to the microsomal stability samples.
(§3) Quantification of test compounds and positive controls were performed using analyte/internal standard peak area ratios (PAR) measured on a Q-Exactive mass spectrometer (Thermo Scientific, San Jose, Calif.) coupled to an Aria Transcend LX-4 multiplex UHPLC system (Thermo Scientific, San Jose, Calif.). […] Half-lives of compounds in the incubations were calculated from extracted data using GMSU/QuickCalc (Gubbs, Inc.) and data are summarized in the following Table 2.

[4] = In vitro metabolic stability, hepatocyte stability (dog); format: in vitro ADME; settings: Dog hepatocytes, read-out: hepatocyte stability T1/2 (converted)
Description: as §1, §2, §3

[5] = In vitro metabolic stability, hepatocyte stability (rat); format: in vitro ADME; settings: Rat hepatocytes, read-out: hepatocyte stability T1/2 (converted)
Description: as §1, §2, §3

MT-4 cytotoxicity assay = format: cell-based, human; settings: human, five days, Cell Titer Glo luminescence; read-out: MT-4 CC50
[6] = In vitro metabolic stability, hepatocyte stability (human); format: in vitro ADME; settings: Human hepatocytes, read-out: hepatocyte stability T1/2 (converted)
Description: as §1, §2, §3

**Q.** Which results are given for `COCCCOc1cc2c(cc1Cl)-c1cc(=O)c(C(=O)O)cn1[C@H]1[C@@H]2CCC1(C)C` (racemic) [Example 32, cis-10-chloro-11-(3-methoxypropoxy)-3,3-dimethyl-7-oxo-1,2,3,3a,7,12b-hexahydrocyclopenta[c]pyrido[2,1-a]isoquinoline-6-carboxylic acid]?
**A.** CC50 [1]: 6 µM; EC50 [2]: 0.12 µM

**Q.** With `COCCCOc1cc2c(cc1Cl)-c1cc(=O)c(C(=O)O)cn1[C@H]1[C@@H]2CCC1(C)C` (single isomer, unassigned) [Example 33] as the compound, how does the half-life at 2 μM [3] read?
**A.** Its half-life at 2 μM is 5.6 h.

**Q.** What about the half-life at 2 μM [4] of the same compound?
**A.** The half-life at 2 μM was 5.7 h.

**Q.** What about the half-life at 2 μM [5] of the same compound?
**A.** The half-life at 2 μM was 1.6 h.

**Q.** What about the CC50 at 5 days (MT-4 cytotoxicity assay) of the same compound?
**A.** Its CC50 at 5 days is 7.9 µM.

**Q.** What about the half-life at 2 μM [6] of the same compound?
**A.** The half-life at 2 μM was 21.6 h.

**Q.** And the EC50 ([2]; Hepatitis B virus, 120 h)?
**A.** Its EC50 is 0.0018 µM.
